Experimental data as given in patent US20260200928A1, “THERAPEUTIC COMPOUNDS” (Sanofi, priority 2022, published 2026).
pIC50: −log10 of the molar value.

Molecular target: T1, human IL-17A (Homo sapiens, UniProt Q16552)
T1 construct: purchased R&D Systems 7955-IL/CF
T1 sequence (Q16552 24-155): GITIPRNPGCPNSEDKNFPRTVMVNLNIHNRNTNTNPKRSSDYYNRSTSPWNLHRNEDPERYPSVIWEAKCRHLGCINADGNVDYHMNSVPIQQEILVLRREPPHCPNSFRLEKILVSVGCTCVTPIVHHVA
Assay: IL-17A AlphaLISA competition assay (block of IL-17A binding to its receptor IL-17RA)
Conditions: mean IC50 (n≥2), block of IL-17A binding to IL-17RA
Outline: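 Bead-based AlphaLISA competition in PBS with 0.05% Tween-20 and 0.1% BSA: compound first meets human IL-17A (7.5 nM stock) for 30 min, then IL-17RA/Fc (5 nM stock) for 90 min, all at room temperature, before acceptor/donor bead capture. IC50 fitted 4-parameter, DMSO and 4 μM reference inhibitor as controls; at least duplicate.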

Row | SMILES | pIC50
1 | [2H]C([2H])([2H])C([2H])([2H])n1nccc1C(=O)N[C@H](C(=O)Nc1cc([C@@H](COC)N2C[C@@H](C(F)(F)F)NC2=O)ccn1)C1CCC(F)(F)CC1 [Example 189, N-((S)-1-(4,4-difluorocyclohexyl)-2-((4-((S)-2-methoxy-1-((S)-2-oxo-4-(trifluoromethyl)imidazolidin-1-yl)ethyl)pyridin-2-yl)amino)-2-oxoethyl)-1-(ethyl-d5)-1H-pyrazole-5-carboxamide] | 7.19
2 | CCn1nccc1C(=O)N[C@H](C(=O)Nc1cc(C[C@H]2C[C@@H](C(F)(F)F)NC2=O)ccn1)C1CCC(F)(F)CC1 [Example 223, N-((S)-1-(4,4-difluorocyclohexyl)-2-oxo-2-((4-(((3S,5S)-2-oxo-5-(trifluoromethyl)pyrrolidin-3-yl)methyl)pyridin-2-yl)amino)ethyl)-1-ethyl-1H-pyrazole-5-carboxamide] | 7.08
3 | COCC(c1ccnc(NC(=O)C(NC(=O)C(F)(F)c2ccc(C)cc2)C2CCC(C)CC2)c1)N1CC(C(F)(F)F)NC1=O (single isomer, unassigned) [Example 149] | 6.97
4 | [2H]C(c1ccnc(NC(=O)[C@@H](NC(=O)c2nonc2C2CC2)[C@H]2CC[C@H](C)CC2)c1)N1C[C@@H](C(F)(F)F)NC1=O (stereo partly drawn) [Example 231, 4-Cyclopropyl-N-((1S)-1-((1r,4S)-4-methylcyclohexyl)-2-oxo-2-((4-(((S)-2-oxo-4-(trifluoromethyl)imidazolidin-1-yl)methyl-d)pyridin-2-yl)amino)ethyl)-1,2,5-oxadiazole-3-carboxamide] | 7.42
5 | COC[C@H](c1ccnc(NC(=O)[C@@H](NC(=O)c2nonc2C2CC2)C2CCC(F)(F)CC2)c1)N1C[C@@H](C(F)(F)F)NC1=O [Example 200, 4-cyclopropyl-N-((S)-1-(4,4-difluorocyclohexyl)-2-((4-((S)-2-methoxy-1-((S)-2-oxo-4-(trifluoromethyl)imidazolidin-1-yl)ethyl)pyridin-2-yl)amino)-2-oxoethyl)-1,2,5-oxadiazole-3-carboxamide] | 7.74
6 | O=C(CCC(F)(F)F)NC(c1ccnc(NC(=O)[C@@H](NC(=O)c2cocn2)C2CCC(F)(F)CC2)c1)C1CC1 (stereo partly drawn) [Example 109, N-((1S)-2-((4-(cyclopropyl(4,4,4-trifluorobutanamido)methyl)pyridin-2-yl)amino)-1-(4,4-difluorocyclohexyl)-2-oxoethyl)oxazole-4-carboxamide] | 5.11
7 | O=C(N[C@H](C(=O)Nc1cc(C(C2CC2)N2C[C@@H](C(F)(F)F)NC2=O)ccn1)C1CCC(F)(F)CC1)c1nonc1C1CC1 (single isomer, unassigned) [Example 163, 4-Cyclopropyl-N-((S)-2-((4-((R or S)-cyclopropyl((S)-2-oxo-4-(trifluoromethyl)imidazolidin-1-yl)methyl)pyridin-2-yl)amino)-1-(4,4-difluorocyclohexyl)-2-oxoethyl)-1,2,5-oxadiazole-3-carboxamide] | 7.70
8 | COCC(c1ccnc(NC(=O)[C@@H](NC(=O)c2conc2C2CC2)[C@H]2CC[C@H](C)CC2)c1)N1C[C@@H](C(F)(F)F)NC1=O (single isomer, unassigned) [Example 126] | 7.68
9 | COCC(NC(=O)CCC(F)(F)F)c1ccnc(NC(=O)[C@@H](NC(=O)OC(C)(C)C)C2CCC(F)(F)CC2)c1 (single isomer, unassigned) [Example 132] | 5.11
10 | CC(C)(C)OC(=O)N1CCn2c(ccc2C(=O)N[C@H](C(=O)Nc2cc(CN3C[C@@H](C(F)(F)F)NC3=O)ccn2)[C@H]2CC[C@H](C)CC2)C1 [Example 7, Tert-butyl 6-(((S)-1-((1r,4S)-4-methylcyclohexyl)-2-oxo-2-((4-(((S)-2-oxo-4-(trifluoromethyl)imidazolidin-1-yl)methyl)pyridin-2-yl)amino)ethyl)-carbamoyl)-3,4-dihydropyrrolo[1,2-a]pyrazine-2(1H)-carboxylate] | 6.39
11 | CC(C)n1nccc1C(=O)N[C@H](C(=O)Nc1cc(CN2C[C@@H](C(F)(F)F)NC2=O)c(F)cn1)[C@H]1CC[C@H](C)CC1 [Example 63, N-((S)-2-((5-fluoro-4-(((S)-2-oxo-4-(trifluoromethyl)-imidazolidin-1-yl)methyl)-pyridin-2-yl)amino)-1-((1r,4S)-4-methylcyclo-hexyl)-2-oxoethyl)-1-isopropyl-1H-pyrazole-5-carboxamide] | 6.48
12 | CCc1oncc1C(=O)N[C@H](C(=O)Nc1cc(C[C@H]2C[C@@H](C(F)(F)F)NC2=O)ccn1)C1CCC(F)(F)CC1 [Example 218, N-((S)-1-(4,4-difluorocyclohexyl)-2-oxo-2-((4-(((3S,5S)-2-oxo-5-(trifluoromethyl)pyrrolidin-3-yl)methyl)pyridin-2-yl)amino)ethyl)-5-ethylisoxazole-4-carboxamide] | 6.80
13 | CCc1nocc1C(=O)N[C@H](C(=O)Nc1cc(C(NC(=O)CCC(F)(F)F)C2CC2)ccn1)C(C1CC1)C1CC1 (single isomer, unassigned) [Example 44] | 6.82

The remaining lines, values ahead:

Row | pIC50 | SMILES
14 | 6.93 | COC[C@H](c1ccnc(NC(=O)C(NC(=O)c2nocc2OCC(F)F)C2CCC(F)CC2)c1)N1C[C@@H](C(F)(F)F)NC1=O (single isomer, unassigned) [Example 281]
15 | 7.15 | COCC(c1ccnc(NC(=O)C(NC(=O)C(F)(F)C(C)C)C2CCC(C)CC2)c1)N1CC(C(F)(F)F)NC1=O (single isomer, unassigned) [Example 255]
16 | 7.60 | COC[C@H](c1ccnc(NC(=O)C(NC(=O)c2nonc2C2CC2)C2CCC(C)(F)CC2)c1)N1C[C@@H](C(F)(F)F)NC1=O (single isomer, unassigned) [Example 295]
17 | 7.42 | COCC(c1ccnc(NC(=O)C(NC(=O)C(F)(F)c2cc(F)cc(F)c2)C2CCC(C)CC2)c1)N1CC(C(F)(F)F)NC1=O (single isomer, unassigned) [Example 250]
18 | 7.85 | CC1CCC(C(NC(=O)c2nonc2C2CC2)C(=O)Nc2cc(C(C)N3CC(C(F)(F)F)NC3=O)ccn2)CC1 [Example 238, 4-cyclopropyl-N-((S)-1-((1r,4S)-4-methylcyclohexyl)-2-oxo-2-((4-((R)-1-((S)-2-oxo-4-(trifluoromethyl)imidazolidin-1-yl)ethyl)pyridin-2-yl)amino)ethyl)-1,2,5-oxadiazole-3-carboxamide]
19 | 7.05 | C[C@H]1CC[C@@H]([C@H](NC(=O)c2nonc2C2CC2)C(=O)Nc2cc(CN3C[C@@H](C(F)(F)F)NC3=O)ccn2)CC1 [Example 263, 4-Cyclopropyl-N—((S)-1-((1s,4R)-4-methylcyclohexyl)-2-oxo-2-((4-(((S)-2-oxo-4-(trifluoromethyl)imidazolidin-1-yl)methyl)pyridin-2-yl)amino)ethyl)-1,2,5-oxadiazole-3-carboxamide]
20 | 7.34 | CCc1nonc1C(=O)N[C@H](C(=O)Nc1cc([C@@H](COC)N2C[C@@H](C(F)(F)F)NC2=O)ccn1)C1CCC(Cl)CC1 (stereo partly drawn) [Example 316, N-((1S)-1-(4-chlorocyclohexyl)-2-((4-((S)-2-methoxy-1-((S)-2-oxo-4-(trifluoromethyl)imidazolidin-1-yl)ethyl)pyridin-2-yl)amino)-2-oxoethyl)-4-ethyl-1,2,5-oxadiazole-3-carboxamide]
